# Experiments:
# [1] = mice, IV, 10 mg/kg, plasma; cited from earlier work
# [2] = system: Mfn2-null (i.e. expressing Mfn1 only) murine embryonic fibroblasts; test: Mitochondrial elongation; format: cell-based, mouse; conditions: dose-response, compared with 2; result in words
# [3] = Plasma and nerve tissue pharmacokinetics, single oral dose in non-fasted mice; format: in vivo; conditions: male, CD-1, mouse, 50 mg/kg
# [4] = system: mitofusin mRNA expression; conditions: transcriptional enhancer of mitofusin mRNA expression; cited from earlier work
structure (smiles),measurement,setting,value
O=C(CCCCCc1ccccc1)N[C@H]1CC[C@H](O)CC1 [Compound 2],C0,[1],"50,600 ng/mL"
"O=C(CCCCc1ccccc1)N[C@H]1CC[C@H](O)CC1 [Compound 3, N-((1r,4r)-4-hydroxycyclohexyl)-5-phenylpentanamide]",mitofusin activation measured as ability to promote mitochondrial fusion (increased aspect ratio),[2],largely abrogated mitofusin activation
"O=C(N[C@H]1CC[C@H](O)CC1)C1CC1CCCc1ccccc1 (stereo partly shown) [Compound 5, N-(4-hydroxycyclohexyl)-2-(3-phenylpropyl)cyclopropane-1-carboxamide]",MRT inf,[3]; plasma,3.58 h
same,Tmax,[3]; plasma,0.5 h
Cc1oncc1C(=O)Nc1ccc(C(F)(F)F)cc1 [leflunomide],effective concentrations,[4],10 to 50 µM
"O=C(CCCc1ccccc1)N[C@H]1CC[C@H](O)CC1 [Compound 4, N-((1r,4r)-4-hydroxycyclohexyl)-4-phenylbutanamide]",mitofusin activation measured as ability to promote mitochondrial fusion (increased aspect ratio),[2],largely abrogated mitofusin activation
"O=C(N[C@H]1CC[C@H](O)CC1)[C@@H]1C[C@H]1CCCc1ccccc1 [Compound 5B, N-(4-hydroxycyclohexyl)-2-(3-phenylpropyl)cyclopropane-1-carboxamide]",Kp,[3]; brain and plasma,0.394
